PubChem BioAssay AID2060504 (Molecular Pharmacology Branch, DTP, NCI, 2025)
pIC50: −log10 of the molar value.

System: 636577-100-R-J1-PDC complex spheroid viability
Experiment: Anticancer human tumor 636577-100-R-J1-PDC patient-derived endometrial adenocarcinoma cell line growth inhibition [GQUAD]
Conditions: for pIC50: curve of first compound; for viability, T/C: stronger effect = lower value
How it was run: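 Viability of tumor cells grown as complex spheroids with endothelial and stromal cells, exposed to drug combinations. Top concentration at or near clinical Cmax (else 10 microM), diluted in half-log increments.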

[1] = second compound 0.0316 µM, first compound 0.0316 µM
[2] = second compound 0.0316 µM, first compound 0.1 µM
[3] = second compound 0.0316 µM, first compound 0.316 µM
[4] = second compound 0.0316 µM, first compound 1 µM
[5] = second compound 0.0316 µM, first compound 3.16 µM
[6] = second compound 0.0316 µM, first compound 10 µM
[7] = second compound 0.1 µM, first compound 0.0316 µM
[8] = second compound 0.1 µM, first compound 0.1 µM
[9] = second compound 0.1 µM, first compound 0.316 µM
[10] = second compound 0.1 µM, first compound 1 µM
[11] = second compound 0.1 µM, first compound 3.16 µM
[12] = second compound 0.1 µM, first compound 10 µM
[13] = second compound 0.316 µM, first compound 0.0316 µM
[14] = second compound 0.316 µM, first compound 0.1 µM
[15] = second compound 0.316 µM, first compound 0.316 µM
[16] = second compound 0.316 µM, first compound 1 µM
[17] = second compound 0.316 µM, first compound 3.16 µM
[18] = second compound 0.316 µM, first compound 10 µM
[19] = second compound 1 µM, first compound 0.0316 µM
[20] = second compound 1 µM, first compound 0.1 µM
[21] = second compound 1 µM, first compound 0.316 µM
[22] = second compound 1 µM, first compound 1 µM
[23] = second compound 1 µM, first compound 3.16 µM
[24] = second compound 1 µM, first compound 10 µM
[25] = second compound 3.16 µM, first compound 0.0316 µM
[26] = second compound 3.16 µM, first compound 0.1 µM
[27] = second compound 3.16 µM, first compound 0.316 µM
[28] = second compound 3.16 µM, first compound 1 µM
[29] = second compound 3.16 µM, first compound 3.16 µM
[30] = second compound 3.16 µM, first compound 10 µM
[31] = second compound 10 µM, first compound 0.0316 µM
[32] = second compound 10 µM, first compound 0.1 µM
[33] = second compound 10 µM, first compound 0.316 µM
[34] = second compound 10 µM, first compound 1 µM
[35] = second compound 10 µM, first compound 3.16 µM
[36] = second compound 10 µM, first compound 10 µM
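Further: viability read after seven days of drug exposure.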
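Wherever viability, T/C is given: luminescence signal used as a proxy for viable cells; 100% = DMSO vehicle control wells.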

`CC1COCCN1c1cc(C2(S(C)(=N)=O)CC2)nc(-c2ccnc3[nH]ccc23)n1` (centres undefined) + Cc1[nH]c2ccc(F)cc2c1-c1nc2c3cccnc3c3ncccc3c2[nH]1 was tested, and the pIC50 (second compound 0.0316 µM) was 5.93, the pIC50 (second compound 0.1 µM) was 6.19 and the pIC50 (second compound 0.316 µM) was 6.17. The pIC50 (second compound 1 µM) was 6.30, the pIC50 (second compound 3.16 µM) was greater than 7.50 and the pIC50 (second compound 10 µM) was 6.40. It also gave a viability, T/C [1] of 57.4%, a viability, T/C [2] of 83.1% and a viability, T/C [3] of 94.3%. For the same compound, the viability, T/C [4] was 54.7%, the viability, T/C [5] was 27.9% and the viability, T/C [6] was 15.1%. It also gave a viability, T/C [7] of 93.4%, a viability, T/C [8] of 72% and a viability, T/C [9] of 64.8%. It also gave a viability, T/C [10] of 43.1%, a viability, T/C [11] of 27.2% and a viability, T/C [12] of 15.7%. The viability, T/C [13] was 51.2%, the viability, T/C [14] was 101% and the viability, T/C [15] was 63.3%. For the same compound, the viability, T/C [16] was 40.4%, the viability, T/C [17] was 23.5% and the viability, T/C [18] was 12.2%. The viability, T/C [19] was 50.7%, the viability, T/C [20] was 77.8% and the viability, T/C [21] was 60.8%. For the same compound, the viability, T/C [22] was 33.2%, the viability, T/C [23] was 22.3% and the viability, T/C [24] was 12.8%. It also gave a viability, T/C [25] of 28.7%, a viability, T/C [26] of 49% and a viability, T/C [27] of 31%. It also gave a viability, T/C [28] of 23.1%, a viability, T/C [29] of 15.9% and a viability, T/C [30] of 9.24%. It also gave a viability, T/C [31] of 46%, a viability, T/C [32] of 59.8% and a viability, T/C [33] of 56.5%. For the same compound, the viability, T/C [34] was 32.5%, the viability, T/C [35] was 18.6% and the viability, T/C [36] was 12.9%.
In the case of `COc1ccc([C@@H](O)c2cc(-c3ncnc4cc(N5CCOCC5)ccc34)c(F)cc2Cl)nn1` + Cc1[nH]c2ccc(F)cc2c1-c1nc2c3cccnc3c3ncccc3c2[nH]1, the pIC50 (second compound 0.0316 µM) was 6.17, the pIC50 (second compound 0.1 µM) was 6.23 and the pIC50 (second compound 0.316 µM) was 6.17. The pIC50 (second compound 1 µM) was 5.97, the pIC50 (second compound 3.16 µM) was greater than 7.50 and the pIC50 (second compound 10 µM) was 6.07. The viability, T/C [1] was 59.3%, the viability, T/C [2] was 79.9% and the viability, T/C [3] was 103%. The viability, T/C [4] was 26.9%, the viability, T/C [5] was 47.1% and the viability, T/C [6] was 26.8%. The viability, T/C [7] was 44.1%, the viability, T/C [8] was 105% and the viability, T/C [9] was 63.6%. The viability, T/C [10] was 31.3%, the viability, T/C [11] was 54.6% and the viability, T/C [12] was 28.8%. The viability, T/C [13] was 72.8%, the viability, T/C [14] was 105% and the viability, T/C [15] was 66%. For the same compound, the viability, T/C [16] was 47.4%, the viability, T/C [17] was 48.6% and the viability, T/C [18] was 30.1%. It also gave a viability, T/C [19] of 71%, a viability, T/C [20] of 63.6% and a viability, T/C [21] of 60.5%. It also gave a viability, T/C [22] of 53.6%, a viability, T/C [23] of 35% and a viability, T/C [24] of 24.8%. For the same compound, the viability, T/C [25] was 40%, the viability, T/C [26] was 38.4% and the viability, T/C [27] was 43.3%. For the same compound, the viability, T/C [28] was 33.5%, the viability, T/C [29] was 20.1% and the viability, T/C [30] was 16%. For the same compound, the viability, T/C [31] was 70.2%, the viability, T/C [32] was 62.5% and the viability, T/C [33] was 64.2%. The viability, T/C [34] was 44.8%, the viability, T/C [35] was 36.7% and the viability, T/C [36] was 22.3%.
